Reference: patent US8450331B2, “Thiophenyl-substituted 2-imino-3-methyl pyrrolo pyrimidinone compounds as BACE-1 inhibitors, compositions, and their use” (Merck Sharp & Dohme Corp., priority 2008, dated 2013)
Where two headings read alike, the source gives them in different places.

Columns and labels:
CYP3A4 = molecular target: T1, CYP3A4 (Homo sapiens, UniProt P08684); test: CYP inhibition assay, human liver microsomes, CYP3A4; assay type: in vitro ADME
T1 construct: human liver microsomes (0.4 mg/ml); from tissue; host or cells: human liver microsomes
T1 sequence (P08684 whole entry): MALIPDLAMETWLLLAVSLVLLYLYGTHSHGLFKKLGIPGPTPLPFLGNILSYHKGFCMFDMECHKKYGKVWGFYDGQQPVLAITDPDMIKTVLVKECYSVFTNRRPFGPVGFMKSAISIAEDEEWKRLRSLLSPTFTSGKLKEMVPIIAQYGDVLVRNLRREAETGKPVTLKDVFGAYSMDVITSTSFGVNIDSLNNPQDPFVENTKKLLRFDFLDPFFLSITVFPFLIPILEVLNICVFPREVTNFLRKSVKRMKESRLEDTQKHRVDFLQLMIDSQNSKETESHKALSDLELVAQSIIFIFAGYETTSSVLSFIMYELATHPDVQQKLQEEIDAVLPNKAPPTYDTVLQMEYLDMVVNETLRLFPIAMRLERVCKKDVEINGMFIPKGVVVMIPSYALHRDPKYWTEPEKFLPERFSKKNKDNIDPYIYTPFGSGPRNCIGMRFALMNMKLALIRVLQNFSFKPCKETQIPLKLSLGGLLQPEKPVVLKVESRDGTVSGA

CYP2C9 = molecular target: T2, CYP2C9 (Homo sapiens, UniProt P11712); test: CYP inhibition assay, human liver microsomes, CYP2C9; assay type: in vitro ADME
T2 construct: human liver microsomes (0.4 mg/ml); from tissue; host or cells: human liver microsomes
T2 sequence (P11712 whole entry): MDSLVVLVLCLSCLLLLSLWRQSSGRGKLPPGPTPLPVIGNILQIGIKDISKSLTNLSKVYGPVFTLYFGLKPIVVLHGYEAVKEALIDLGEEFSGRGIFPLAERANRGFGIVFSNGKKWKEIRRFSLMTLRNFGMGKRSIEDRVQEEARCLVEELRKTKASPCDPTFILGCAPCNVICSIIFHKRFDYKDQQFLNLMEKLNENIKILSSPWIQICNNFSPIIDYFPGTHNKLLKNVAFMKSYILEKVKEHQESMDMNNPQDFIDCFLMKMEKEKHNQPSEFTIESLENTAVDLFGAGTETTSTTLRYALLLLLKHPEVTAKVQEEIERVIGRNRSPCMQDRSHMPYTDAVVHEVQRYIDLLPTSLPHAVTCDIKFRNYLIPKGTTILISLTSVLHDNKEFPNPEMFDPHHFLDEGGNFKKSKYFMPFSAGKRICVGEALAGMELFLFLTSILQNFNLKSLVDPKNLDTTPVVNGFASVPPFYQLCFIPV
Protocol: (§1) The test article was dissolved in methanol at a concentration of 5 mM. Dilutions of the stock solution were also prepared in methanol. The substrate concentration was kept near the Km value for each CYP reaction. The substrates were 100 μM phenacetin (O-deethylase reaction) for CYP1A2, 16 μM dextromethorphan (O-demethylase reaction) for CYP2D6, 100 μM testosterone (6β-hydroxylase reaction) and 5 μM midazolam (1′-hydroxylase reaction) for CYP3A4, 200 μM tolbutamide (4-hydroxylase reaction) for CYP2C9, 125 μM S-(+)-mephenyloin (4-hydroxylase reaction) for CYP2C19 and 5 μM paclitaxel (6[…]-hydroxylase reaction) for CYP2C8. The reactions were terminated by the addition of 35% perchloric acid to a final concentration of 4.5% (vol:vol). The concentrations of the metabolites formed from each substrate after incubation were determined by LC-MS/MS using a standard curve.
(§2) To evaluate metabolism/mechanism-based inhibition, the test article, at the stated concentrations (0 to 50 μM), was pre-incubated with human liver microsomes for 30 min at 37° C. in the presence of NADPH and in the absence of the substrates. After the pre-incubation step, the CYP substrates were added at the previously stated concentrations and the reactions were allowed to proceed as indicated in the previous paragraph.

CYP2D6 = molecular target: T3, CYP2D6 (Homo sapiens, UniProt P10635); test: CYP inhibition assay, human liver microsomes, CYP2D6; assay type: in vitro ADME
T3 construct: human liver microsomes (0.4 mg/ml); from tissue; host or cells: human liver microsomes
T3 sequence (P10635 whole entry): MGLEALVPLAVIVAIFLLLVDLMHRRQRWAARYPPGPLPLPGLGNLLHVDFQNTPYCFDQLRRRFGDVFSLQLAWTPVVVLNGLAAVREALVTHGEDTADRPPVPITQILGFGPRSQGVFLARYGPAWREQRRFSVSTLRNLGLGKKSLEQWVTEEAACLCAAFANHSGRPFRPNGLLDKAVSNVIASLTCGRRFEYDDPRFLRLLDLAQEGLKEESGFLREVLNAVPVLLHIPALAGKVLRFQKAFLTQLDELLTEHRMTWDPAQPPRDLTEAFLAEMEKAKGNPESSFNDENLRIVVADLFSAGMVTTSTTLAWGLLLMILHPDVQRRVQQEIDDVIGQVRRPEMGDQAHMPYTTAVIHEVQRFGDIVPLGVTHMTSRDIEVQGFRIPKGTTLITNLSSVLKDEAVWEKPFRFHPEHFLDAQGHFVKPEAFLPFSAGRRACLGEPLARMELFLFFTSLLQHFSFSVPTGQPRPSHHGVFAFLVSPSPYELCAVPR
Protocol: as §1, §2

hERG = molecular target: T4, hERG (Homo sapiens, UniProt Q12809); test: hERG rubidium efflux in hERG-CHO cells; assay type: cell-based; settings: CHO cells that express hERG (hERG-CHO); for inhibition at 30 min, 1.5 uG/mL: pH 7.4, 1.5 uG/mL, read-out: HERG Rb efflux % Inhib 1.5 uG/mL; for inhibition at 30 min, 5 uG/mL: pH 7.4, 5 uG/mL, read-out: HERG Rb efflux % Inhib 5 uG/mL
T4 construct: expressed in transfected cells; host or cells: CHO cells (hERG-CHO)
T4 sequence (Q12809 whole entry): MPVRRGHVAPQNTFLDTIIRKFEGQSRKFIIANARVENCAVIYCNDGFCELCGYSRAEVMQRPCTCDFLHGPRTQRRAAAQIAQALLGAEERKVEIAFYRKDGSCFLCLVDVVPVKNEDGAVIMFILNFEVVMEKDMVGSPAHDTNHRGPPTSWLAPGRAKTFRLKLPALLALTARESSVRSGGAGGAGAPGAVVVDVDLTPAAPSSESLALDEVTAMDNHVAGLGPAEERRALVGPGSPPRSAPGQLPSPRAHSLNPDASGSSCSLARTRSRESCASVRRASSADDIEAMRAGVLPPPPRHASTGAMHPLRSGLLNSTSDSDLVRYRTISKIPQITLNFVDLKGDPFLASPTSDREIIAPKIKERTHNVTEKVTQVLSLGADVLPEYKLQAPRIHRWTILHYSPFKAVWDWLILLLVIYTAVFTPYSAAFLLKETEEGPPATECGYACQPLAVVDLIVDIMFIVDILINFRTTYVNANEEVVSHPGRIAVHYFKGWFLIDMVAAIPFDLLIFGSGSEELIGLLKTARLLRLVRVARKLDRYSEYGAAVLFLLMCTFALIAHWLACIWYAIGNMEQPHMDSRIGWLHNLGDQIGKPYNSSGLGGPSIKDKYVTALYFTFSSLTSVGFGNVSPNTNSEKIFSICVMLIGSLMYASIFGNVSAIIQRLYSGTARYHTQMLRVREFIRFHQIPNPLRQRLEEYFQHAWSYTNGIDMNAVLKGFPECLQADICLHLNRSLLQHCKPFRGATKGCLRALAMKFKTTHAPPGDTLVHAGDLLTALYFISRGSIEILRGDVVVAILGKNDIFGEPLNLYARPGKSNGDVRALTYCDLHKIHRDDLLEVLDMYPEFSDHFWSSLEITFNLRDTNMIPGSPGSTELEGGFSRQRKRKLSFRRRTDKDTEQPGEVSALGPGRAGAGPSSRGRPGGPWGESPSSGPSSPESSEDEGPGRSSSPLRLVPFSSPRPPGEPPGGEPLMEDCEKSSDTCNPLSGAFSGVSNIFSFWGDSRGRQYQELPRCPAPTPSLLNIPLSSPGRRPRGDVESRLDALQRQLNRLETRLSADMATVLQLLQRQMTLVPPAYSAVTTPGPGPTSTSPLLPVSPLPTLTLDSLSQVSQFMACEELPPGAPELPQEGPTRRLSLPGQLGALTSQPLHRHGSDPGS
Protocol: The base solution for the rubidium efflux studies was 144 mM NaCl, 20 mM HEPES-NaOH (pH 7.4), 2 mM CaCl2, 1 mM MgCl2, and 11 mM glucose. To prepare the rubidium loading buffer 5.4 mM RbCl was added. The wash buffer was supplemented with 5.4 mM KCl. The depolarization buffer was prepared by adding 40 mM KCl to the wash buffer. Drugs were added as 4× stocks containing 10% DMSO with a resulting final DMSO concentration of 2.5%.
hERG-CHO cells were plated into 96-well flat-bottom dishes and returned to the incubator for 24 hours. On the day of study, culture medium was removed and replaced by a HEPES-buffered saline solution containing 5.4 mM RbCl. Cells were returned to the tissue culture incubator for 3 hours to permit rubidium loading. […] Plates were then washed 3× with HEPES buffered saline containing 5.4 mM KCl and zero rubidium. After the 3rd wash cells were depolarized by the addition of 200 μl HEPES buffered saline containing 45.4 mM KCl. Cells were incubated in the depolarization solution for 5 minutes to permit efflux of rubidium. Supernatants were then collected and analyzed for rubidium content using automated flame atomic absorbance spectroscopy (ICR-8000, Aurora Biosciences). Percent inhibition was quantified based on a signal window defined by no block (vehicle) and full block with 10 μM dofetilide. All pipetting steps for the rubidium efflux screen were implemented using a pipetting robot capable of making simultaneous additions and removals from 96 wells (Quadra-96).

[1] = molecular target: T5, soluble human BACE1 catalytic domain (Homo sapiens, UniProt P56817); test: BACE1 HTRF FRET assay; assay type: biochemical; settings: calculated from IC50 by Cheng-Prusoff; QSY7-APPswe-Eu substrate, pH 5.0
T5 construct: purified human BACE1 catalytic domain
T5 sequence (P56817 75-416 limits assumed): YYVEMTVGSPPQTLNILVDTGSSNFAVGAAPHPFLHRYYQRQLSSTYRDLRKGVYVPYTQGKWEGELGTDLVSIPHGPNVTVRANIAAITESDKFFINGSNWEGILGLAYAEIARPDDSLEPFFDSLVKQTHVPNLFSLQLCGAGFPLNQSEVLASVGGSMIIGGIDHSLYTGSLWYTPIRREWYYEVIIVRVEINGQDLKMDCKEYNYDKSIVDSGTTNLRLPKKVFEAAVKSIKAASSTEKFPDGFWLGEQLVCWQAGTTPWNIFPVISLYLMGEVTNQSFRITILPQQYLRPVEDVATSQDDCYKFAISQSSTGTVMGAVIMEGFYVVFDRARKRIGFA

BACE1 = molecular target: T6, BACE1 (Homo sapiens, UniProt P56817); test: BACE inhibitor whole cell IC50 determination using HEK293-APPswe/lon cells (Aβ40); assay type: cell-based; settings: 4 hours, Aβ40 in media, read-out: BACE1 A[…]40 IC50
T6 construct: endogenous in cells; host or cells: HEK293 stably transfected with human APP cDNA (Swedish and London mutations)
T6 sequence (P56817 46-501): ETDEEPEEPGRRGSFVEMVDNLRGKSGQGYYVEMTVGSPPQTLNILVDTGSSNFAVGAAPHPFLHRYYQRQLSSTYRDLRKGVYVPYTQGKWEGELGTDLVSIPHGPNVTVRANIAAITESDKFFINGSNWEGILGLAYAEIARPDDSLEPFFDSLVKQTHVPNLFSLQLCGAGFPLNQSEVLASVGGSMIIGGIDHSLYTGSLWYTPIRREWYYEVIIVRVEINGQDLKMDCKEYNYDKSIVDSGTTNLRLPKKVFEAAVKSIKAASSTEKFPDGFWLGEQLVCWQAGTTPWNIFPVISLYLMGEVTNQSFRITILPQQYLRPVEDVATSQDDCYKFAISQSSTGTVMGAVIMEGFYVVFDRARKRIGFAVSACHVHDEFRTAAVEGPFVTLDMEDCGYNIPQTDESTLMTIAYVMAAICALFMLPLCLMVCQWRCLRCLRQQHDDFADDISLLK

human liver Cathepsin D = molecular target: T7, human liver Cathepsin D (Homo sapiens, UniProt P07339); test: Human Cathepsin D FRET assay; assay type: biochemical; settings: selectivity with respect to Cathepsin D versus BACE1
T7 construct: Purified (>95%) human liver Cathepsin D; purchased Athens Research & Technology 16-12-030104; host or cells: human liver (tissue-derived)
T7 sequence (P07339 169-412 limits assumed): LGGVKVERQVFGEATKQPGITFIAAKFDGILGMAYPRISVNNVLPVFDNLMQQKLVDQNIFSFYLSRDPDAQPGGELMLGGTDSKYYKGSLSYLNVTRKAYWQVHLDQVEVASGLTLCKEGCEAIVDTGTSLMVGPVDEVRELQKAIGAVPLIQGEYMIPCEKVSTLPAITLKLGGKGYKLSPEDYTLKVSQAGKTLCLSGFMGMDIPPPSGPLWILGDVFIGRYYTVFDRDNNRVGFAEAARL
T7 sequence (P07339 65-161 limits assumed): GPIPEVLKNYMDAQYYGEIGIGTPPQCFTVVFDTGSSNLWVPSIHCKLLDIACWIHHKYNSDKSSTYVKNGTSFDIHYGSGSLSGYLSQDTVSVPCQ

[2] = 30 min pre-incubation with NADPH, read-out: CYP 3A4 IC50 pre
[3] = co-incubation, read-out: CYP 3A4 IC50 co
[4] = 30 min pre-incubation with NADPH, read-out: CYP 2C9 IC50 pre
[5] = co-incubation, tolbutamide substrate, read-out: CYP 2C9 IC50 co
[6] = 30 min pre-incubation with NADPH, read-out: CYP 2D6 IC50 pre
[7] = co-incubation, dextromethorphan substrate, read-out: CYP 2D6 IC50 co

IC50 (CYP3A4; [2]) [µM]	IC50 (CYP3A4; [3]) [µM]	IC50 (CYP2C9; [4]) [µM]	IC50 (CYP2C9; [5]) [µM]	IC50 (CYP2D6; [6]) [µM]	IC50 (CYP2D6; [7]) [µM]	Ki [1] [µM]	IC50 (BACE1) [µM]	CathD Selectivity (human liver Cathepsin D)	Compound	inhibition at 30 min, 1.5 uG/mL (hERG) [%]	inhibition at 30 min, 5 uG/mL (hERG) [%]
~30	> 30	5.5	7.9	19	22	–	–	–	CCc1nc(N2C[C@H]3C(=O)N(C)C(=N)N[C@@]3(c3ccc(Cl)s3)C2)nc(OC)c1F [Example 4]	17	49
> 30	> 30	> 30	> 30	> 30	> 30	0.024	0.285	–	CCc1nc(N2C[C@H]3C(=O)N(C)C(=N)N[C@@]3(c3ccc(Cl)s3)C2)nc(C)c1F [Example 7]	–	–
–	–	22.8	20.3	> 30	> 30	–	–	–	COc1nc(N2C[C@H]3C(=O)N(C)C(=N)N[C@@]3(c3ccc(Cl)s3)C2)nc(C)c1F [Example 2]	4	22
~30	> 30	> 30	> 30	> 30	> 30	0.052	0.141	47	Cc1nc(N2C[C@H]3C(=O)N(C)C(=N)N[C@@]3(c3ccc(C#N)s3)C2)nc(C)c1F [Example 19]	-5	3
–	–	> 30	23.4	> 30	> 30	–	–	–	[H]/N=C1\N[C@@]2(c3ccc(C#N)s3)CN(c3nc(C)c(F)c(OC)n3)C[C@H]2C(=O)N1C [Example 1]	1	10
23	> 30	4.2	7.3	12.9	13.5	0.11	–	–	CCOc1nc(N2C[C@H]3C(=O)N(C)C(=N)N[C@@]3(c3ccc(Cl)s3)C2)nc(CC)c1F [Example 5]	10	22
–	–	–	–	–	–	0.019	0.135	16	CCCc1nc(N2C[C@H]3C(=O)N(C)C(=N)N[C@@]3(c3ccc(C#N)s3)C2)nc(C)c1F [Example 16]	44	28
12	16	19	19	21	> 30	0.049	–	–	Cc1nc(N2C[C@H]3C(=O)N(C)C(=N)N[C@@]3(c3ccc(Cl)s3)C2)nc(C2CC2)c1F [Example 6]	–	–
> 30	> 30	> 30	> 30	> 30	> 30	0.031	0.21	82	Cc1nc(N2C[C@H]3C(=O)N(C)C(=N)N[C@@]3(c3cc(C#N)cs3)C2)nc(C2CC2)c1F [Example 8]	–	–
–	–	–	–	–	–	0.049	0.315	–	Cc1nc(N2C[C@H]3C(=O)N(C)C(=N)N[C@@]3(c3ccc(C#N)s3)C2)nc(C2CC2)c1F [Example 9]	–	–
> 30	> 30	> 30	> 30	> 30	> 30	0.047	–	–	Cc1nc(N2C[C@H]3C(=O)N(C)C(=N)N[C@@]3(c3ccc(Cl)s3)C2)nc(C)c1F [Example 14]	14	6
–	–	–	–	–	–	0.151	1.32	–	COc1nc(N2C[C@H]3C(=O)N(C)C(=N)N[C@@]3(c3ccc(Cl)s3)C2)nc(C2CC2)c1F [Example 11]	26	72
–	–	–	–	–	–	0.0088	0.147	20	CCCc1nc(N2C[C@H]3C(=O)N(C)C(=N)N[C@@]3(c3ccc(Cl)s3)C2)nc(C)c1F [Example 15]	35	40
–	–	–	–	–	–	0.03	0.561	–	COc1nc(N2C[C@H]3C(=O)N(C)C(=N)N[C@@]3(c3ccc(Cl)s3)C2)nc(C2CC2)c1Cl [Example 12]	-7	34
–	–	–	–	–	–	0.0096	0.215	62	Cc1nc(N2C[C@H]3C(=O)N(C)C(=N)N[C@@]3(c3ccc(Cl)s3)C2)nc(C2CC2)c1Cl [Example 20]	-1	34
–	–	–	–	–	–	0.157	–	–	CCc1nc(N2C[C@H]3C(=O)N(C)C(=N)N[C@@]3(c3ccc(Cl)s3)C2)nc(C2CC2)c1Cl [Example 13]	2	46
11.9	> 30	11.3	7.9	8.2	6.1	–	–	–	CCCc1nc(N2C[C@H]3C(=O)N(C)C(=N)N[C@@]3(c3ccc(Cl)s3)C2)nc(OC)c1F [Example 10]	23	65
